Measured values published in DBAASP.
In brackets after ≈: the same amount, converted by molar mass.

How the values were obtained:
Test in all cases: ≥ marks a high value that may be exact or a test limit, other limits are often not marked, values filed in µg/mL are converted to µM
[1] = system: Staphylococcus aureus NCTC 10788
[2] = system: Escherichia coli NCTC 10418
[3] = system: Candida albicans NCPF 1467
[4] = system: Staphylococcus aureus ATCC 6538P
[5] = system: Bacillus subtilis ATCC 6633
[6] = system: Staphylococcus epidermidis ATCC 12228
[7] = system: Escherichia coli ATCC 25922
[8] = system: Staphylococcus aureus TK784
[9] = system: Klebsiella pneumoniae ATCC 10031
[10] = system: Shigella dysenteriae ATCC 9752
[11] = system: Micrococcus luteus ATCC 10240
[12] = system: Salmonella enterica subsp. enterica serovar Typhimurium ATCC 14028
[13] = system: Pseudomonas aeruginosa ATCC 27853
[14] = system: Klebsiella pneumoniae
[15] = system: Escherichia coli
[16] = system: Serratia marcescens
[17] = system: Salmonella typhimurium
[18] = system: Candida albicans
[19] = system: Micrococcus luteus
[20] = system: Proteus mirabilis
[21] = system: Bacillus subtilis
[22] = system: Pseudomonas aeruginosa
[23] = system: Shigella dysenteriae
[24] = system: Candida albicans ATCC 20032
[25] = system: Staphylococcus aureus ATCC 25923

Row | SMILES | MIC [4] | MIC [5] | MIC [6] | MIC [7] | MIC [8] | MIC [9] | MIC [10] | MIC [11] | MIC [12] | MIC [13] | MIC [24] | MIC [25] | also measured
1 | CC[C@H](C)[C@H](NC(=O)[C@H](CO)NC(=O)[C@H](CC(N)=O)NC(=O)[C@@H](NC(=O)[C@H](Cc1ccccc1)NC(=O)[C@H](C)NC(=O)[C@H](CO)NC(=O)[C@H](C)NC(=O)[C@H](Cc1ccccc1)NC(=O)[C@H](CC(C)C)NC(=O)[C@H](CCCCN)NC(=O)[C@H](C)NC(=O)CNC(=O)[C@H](CC(C)C)NC(=O)[C@H](CCCCN)NC(=O)[C@H](CC(C)C)NC(=O)[C@H](CCCCN)NC(=O)[C@H](CC(C)C)NC(=O)[C@H](CC(C)C)NC(=O)[C@H](Cc1ccccc1)NC(=O)CN)C(C)C)C(=O)N[C@@H](CCCCN)C(N)=O [GFLLKLKLGAKLFASAFVNSIK] | – | – | – | – | – | – | – | – | – | – | – | – | MIC [1]: 6.76 µM (≈ 16 µg/mL); MIC [2]: 13.5 µM (≈ 32 µg/mL); MIC [3]: 6.76 µM (≈ 16 µg/mL)
2 | CC(C)C[C@H](NC(=O)[C@H](CC(C)C)NC(=O)[C@H](Cc1c[nH]c2ccccc12)NC(=O)[C@H](CCCCN)NC(=O)[C@H](CC(C)C)NC(=O)[C@H](CC(C)C)NC(=O)[C@H](Cc1c[nH]c2ccccc12)NC(=O)[C@H](CCCCN)NC(=O)[C@H](CC(C)C)NC(=O)[C@@H](N)CC(C)C)C(=O)N[C@@H](CCCCN)C(N)=O [LLKWLLKWLLK] | 1.72 µM (≈ 2.5 µg/mL) | 0.894 µM (≈ 1.3 µg/mL) | 0.894 µM (≈ 1.3 µg/mL) | > 55 µM | 3.44 µM (≈ 5 µg/mL) | ≥ 55 µM | ≥ 55 µM | 1.72 µM (≈ 2.5 µg/mL) | > 55 µM | > 55 µM | – | – | –
3 | CC[C@H](C)[C@H](NC(=O)CN)C(=O)N[C@@H](Cc1ccccc1)C(=O)N[C@@H](CO)C(=O)N[C@@H](CCCCN)C(=O)N[C@@H](CC(C)C)C(=O)N[C@@H](C)C(=O)NCC(=O)N[C@@H](CCCCN)C(=O)N[C@@H](CCCCN)C(=O)N[C@H](C(=O)N[C@@H](CCCCN)C(=O)N[C@@H](CC(N)=O)C(=O)N[C@@H](CC(C)C)C(=O)N[C@@H](CC(C)C)C(=O)N[C@H](C(=O)N[C@@H](CO)C(=O)NCC(=O)N[C@@H](CC(C)C)C(=O)N[C@@H](CCCCN)C(=O)N[C@@H](CC(N)=O)C(=O)N[C@H](C(=O)NCC(=O)N[C@@H](CCCCN)C(=O)N[C@@H](CCC(=O)O)C(=O)N[C@H](C(=O)NCC(=O)N[C@@H](CCSC)C(=O)N[C@@H](CC(=O)O)C(=O)N[C@H](C(=O)N[C@H](C(=O)N[C@@H](CCCN=C(N)N)C(=O)N[C@H](C(=O)NCC(=O)N[C@H](C(=O)N[C@@H](CC(=O)O)C(=O)N[C@H](C(=O)N[C@@H](C)C(=O)NCC(=O)N[C@H]1CSSC[C@@H](C(=O)O)NC(=O)[C@H](CCC(=O)O)NC(=O)CNC(=O)[C@H](CCCCN)NC(=O)[C@H]([C@@H](C)CC)NC(=O)[C@H](CCCCN)NC1=O)[C@@H](C)CC)[C@@H](C)CC)[C@@H](C)O)C(C)C)C(C)C)C(C)C)[C@@H](C)CC)[C@@H](C)CC)[C@@H](C)CC [GIFSKLAGKKIKNLLISGLKNIGKEVGMDVVRTGIDIAGCKIKGEC] | – | – | – | – | – | – | – | – | – | – | – | – | MIC [14]: 2.6 µM (≈ 12.5 µg/mL); MIC [15]: 5.19 µM (≈ 25 µg/mL); MIC [16]: ≥ 41.5 µM; MIC [17]: 5.19 µM (≈ 25 µg/mL); MIC [18]: 41.5 µM (≈ 200 µg/mL); MIC [19]: 1.31 µM (≈ 6.3 µg/mL); MIC [20]: ≥ 41.5 µM; MIC [21]: 1.31 µM (≈ 6.3 µg/mL); MIC [22]: 5.19 µM (≈ 25 µg/mL); MIC [23]: 2.6 µM (≈ 12.5 µg/mL)
4 | CC[C@H](C)[C@H](N)C(=O)N[C@@H](CC(C)C)C(=O)NCC(=O)N1CCC[C@H]1C(=O)N[C@H](C(=O)N[C@@H](CC(C)C)C(=O)NCC(=O)N[C@@H](CC(C)C)C(=O)N[C@H](C(=O)NCC(=O)N[C@@H](CO)C(=O)N[C@@H](C)C(=O)N[C@@H](CC(C)C)C(=O)NCC(=O)NCC(=O)N[C@@H](CC(C)C)C(=O)N[C@H](C(N)=O)[C@@H](C)CC)C(C)C)C(C)C [ILGPVLGLVGSALGGLI] | – | ≥ 64.6 µM | – | > 64.6 µM | – | – | – | – | – | – | ≥ 64.6 µM | > 64.6 µM | –
5 | CC(C)C[C@H](NC(=O)[C@H](Cc1c[nH]c2ccccc12)NC(=O)[C@H](CCCCN)NC(=O)[C@H](CCCCN)NC(=O)[C@H](CC(C)C)NC(=O)[C@H](Cc1c[nH]c2ccccc12)NC(=O)[C@H](CCCCN)NC(=O)[C@H](CC(C)C)NC(=O)[C@@H](N)CC(C)C)C(=O)N[C@@H](CCCCN)C(=O)N[C@@H](CCCCN)C(N)=O [LLKWLKKWLKK] | 1.68 µM (≈ 2.5 µg/mL) | 1.68 µM (≈ 2.5 µg/mL) | 1.68 µM (≈ 2.5 µg/mL) | 27 µM (≈ 40 µg/mL) | 27 µM (≈ 40 µg/mL) | 27 µM (≈ 40 µg/mL) | ≥ 53.9 µM | 3.37 µM (≈ 5 µg/mL) | 53.9 µM (≈ 79.9 µg/mL) | 13.5 µM (≈ 20 µg/mL) | – | – | –
6 | CC(C)C[C@H](NC(=O)[C@H](Cc1c[nH]c2ccccc12)NC(=O)[C@H](CCCCN)NC(=O)[C@H](CC(C)C)NC(=O)[C@H](CC(C)C)NC(=O)[C@H](CCCCN)NC(=O)[C@H](CCCCN)NC(=O)[C@H](CC(C)C)NC(=O)[C@H](CC(C)C)NC(=O)[C@H](CCCCN)NC(=O)[C@@H](N)CCCCN)C(N)=O [KKLLKKLLKWL] | 0.709 µM (≈ 0.999 µg/mL) | 0.709 µM (≈ 0.999 µg/mL) | 0.709 µM (≈ 0.999 µg/mL) | 1.42 µM (≈ 2 µg/mL) | 2.84 µM (≈ 4 µg/mL) | 1.42 µM (≈ 2 µg/mL) | 0.709 µM (≈ 0.999 µg/mL) | 1.42 µM (≈ 2 µg/mL) | 0.709 µM (≈ 0.999 µg/mL) | 2.84 µM (≈ 4 µg/mL) | – | – | –
7 | CC[C@H](C)[C@H](NC(=O)CN)C(=O)NCC(=O)N[C@H](C(=O)N[C@@H](CCCCN)C(=O)N[C@@H](Cc1ccccc1)C(=O)N[C@@H](CC(C)C)C(=O)NCC(=O)NCC(=O)N[C@H](C(=O)N[C@@H](CCCCN)C(=O)N[C@H](C(=O)N[C@@H](C)C(=O)N[C@@H](CC(C)C)C(=O)N[C@@H](CCCCN)C(=O)NCC(=O)N[C@@H](C)C(=O)N[C@@H](CC(C)C)C(=O)N[C@@H](CCCCN)C(=O)N[C@@H](CCC(=O)O)C(=O)N[C@@H](CC(C)C)C(=O)N[C@@H](C)C(=O)N[C@@H](Cc1ccccc1)C(=O)N[C@H](C(=O)N[C@@H](Cc1ccc(O)cc1)C(=O)N[C@H](C(=O)N[C@@H](CC(N)=O)C(N)=O)C(C)C)[C@@H](C)O)[C@@H](C)O)C(C)C)[C@@H](C)O [GIGTKFLGGVKTALKGALKELAFTYVN] | – | ≥ 35.7 µM | – | 13.4 µM (≈ 37.5 µg/mL) | – | – | – | – | – | – | ≥ 35.7 µM | 6.72 µM (≈ 18.8 µg/mL) | –
8 | CC[C@H](C)[C@H](N)C(=O)N[C@@H](CC(C)C)C(=O)NCC(=O)N1CCC[C@H]1C(=O)N[C@H](C(=O)N[C@@H](CC(C)C)C(=O)NCC(=O)N[C@@H](CC(C)C)C(=O)N[C@H](C(=O)NCC(=O)N[C@@H](CC(N)=O)C(=O)N[C@@H](C)C(=O)N[C@@H](CC(C)C)C(=O)NCC(=O)NCC(=O)N[C@@H](CC(C)C)C(=O)N[C@H](C(=O)N[C@@H](CCCCN)C(=O)N[C@@H](CCCCN)C(=O)N[C@@H](CC(C)C)C(N)=O)[C@@H](C)CC)C(C)C)C(C)C [ILGPVLGLVGNALGGLIKKL] | – | 9.66 µM (≈ 18.8 µg/mL) | – | > 51.4 µM | – | – | – | – | – | – | 4.83 µM (≈ 9.4 µg/mL) | 4.83 µM (≈ 9.4 µg/mL) | –
9 | CC[C@H](C)[C@H](N)C(=O)N[C@H](C(=O)NCC(=O)N[C@@H](C)C(=O)N[C@H](C(=O)N[C@@H](C)C(=O)N[C@@H](C)C(=O)N[C@@H](C)C(=O)N[C@@H](CC(C)C)C(=O)N1CCC[C@H]1C(=O)N[C@@H](Cc1cnc[nH]1)C(=O)N[C@H](C(=O)N[C@H](C(=O)N[C@@H](CC(N)=O)C(=O)N[C@@H](C)C(=O)N[C@H](C(=O)N[C@@H](CCCCN)C(=O)N[C@@H](CC(N)=O)C(=O)N[C@H](C(=O)N[C@@H](Cc1ccccc1)C(=O)O)[C@@H](C)O)[C@@H](C)CC)[C@@H](C)CC)C(C)C)[C@@H](C)CC)[C@@H](C)CC [IIGAIAAALPHVINAIKNTF] | – | – | – | – | – | – | – | – | – | – | – | – | MIC [1]: 16 µM (≈ 32.8 µg/mL); MIC [3]: ≥ 120 µM
